The results in this text go back to patent US20140017701A1, “CHIMERIC PDK1 KINASES” (priority 2011, published 2014).

Experiment [1] relates to PKCζ-dependent NFκB activation in U937 cells. In words: PKCζ-dependent NFκB signaling in U937 cells (luciferase reporter, TNFα stimulation). It is filed as cell-based. To be noted: 3 h pre-incubation, TNFα 50 ng/ml 90 min, read-out: IC50, inhibition of PKCζ-dependent NFκB activation. The procedure: In U937 lymphoma cells, tumor necrosis factor alpha (TNFα) dependent activation of NFκB is dependent on PKCζ activity (Folgueira, L. et al. J Virol 70, 223-31 (1996); Muller, G. et al. Embo J 14, 1961-9 (1995)). U937cells were transiently transfected with a plasmid encoding for luciferase under the control of NFκB response elements (pGL4.32 [luc2P/NF-κB-RE/Hygro], Promega). After serum starvation overnight, the cells were incubated in 96-well plates with the compounds or DMSO (0.25%) for 3 h and stimulated with TNFα (50 ng/ml, PeproTech) for 90 min. Bright-Glo Luciferase Assay reagent (Promega) was added and the luciferase activity measured using the multilabel reader station EnVision (Perkin Elmer).
U937 lymphoma cells were transiently transfected with a plasmid coding for luciferase under the control of the NFκB promoter. Upon stimulation of the cells with TNFα, an increase in luciferase activity is detected. In U937 cells, the NFκB signaling pathway is dependent on PKCζ activity (Muller, G. et al. Embo J 14, 1961-9 (1995)).
(In general: Reporter assays use an easily measured gene product as a stand-in for the process of interest.)

The target of a further experiment is T1, PRK2 (Homo sapiens, UniProt Q16513).
T1 construct: made in house; host or cells: HEK293
T1 sequence (Q16513 whole entry): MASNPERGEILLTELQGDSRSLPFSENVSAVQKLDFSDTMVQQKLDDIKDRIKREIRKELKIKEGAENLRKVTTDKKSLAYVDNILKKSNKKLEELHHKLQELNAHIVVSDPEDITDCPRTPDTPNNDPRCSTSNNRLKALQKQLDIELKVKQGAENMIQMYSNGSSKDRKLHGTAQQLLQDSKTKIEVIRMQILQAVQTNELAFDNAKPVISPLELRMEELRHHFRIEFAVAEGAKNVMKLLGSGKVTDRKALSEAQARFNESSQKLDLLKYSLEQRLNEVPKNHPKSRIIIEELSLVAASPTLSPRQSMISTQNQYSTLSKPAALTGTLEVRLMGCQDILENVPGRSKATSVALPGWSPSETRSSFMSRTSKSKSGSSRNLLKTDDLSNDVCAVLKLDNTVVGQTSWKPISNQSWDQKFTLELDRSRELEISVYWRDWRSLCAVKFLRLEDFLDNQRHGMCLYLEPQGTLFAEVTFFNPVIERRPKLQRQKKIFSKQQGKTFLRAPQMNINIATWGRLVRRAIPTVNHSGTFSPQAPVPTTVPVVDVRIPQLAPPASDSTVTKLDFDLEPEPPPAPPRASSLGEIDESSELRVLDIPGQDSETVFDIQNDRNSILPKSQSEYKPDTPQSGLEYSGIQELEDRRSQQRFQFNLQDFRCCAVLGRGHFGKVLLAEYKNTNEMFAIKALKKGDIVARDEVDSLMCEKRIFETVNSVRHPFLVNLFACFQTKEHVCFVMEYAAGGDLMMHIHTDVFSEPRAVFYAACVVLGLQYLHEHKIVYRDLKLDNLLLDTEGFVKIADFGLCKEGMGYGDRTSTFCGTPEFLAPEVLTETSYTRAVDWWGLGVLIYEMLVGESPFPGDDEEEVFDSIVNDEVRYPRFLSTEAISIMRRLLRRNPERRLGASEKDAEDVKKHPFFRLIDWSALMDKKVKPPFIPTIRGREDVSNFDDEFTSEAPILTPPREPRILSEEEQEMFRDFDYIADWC
Description: Protein kinase activity assay, PRK2. It is filed as biochemical. The following applies: Table I a; percentage of catalytic activity compared to DMSO; Crosstide substrate. The procedure:
(§1) For the expression and purification of protein kinases fused to GST, pEBG-2T derived plasmids were transfected into 8×14.5 cm dishes containing HEK293 cells using the PEI method ([…] and […]/14.5 cm dish). The cells were lysed after 48 h in a buffer containing 50 mM Tris-HCl pH 7.5, 1 mM EGTA, 1 mM EDTA, 1% (w/v) Triton X-100, 1 mM sodium orthovanadate, […], 5 mM sodium pyrophosphate, 0.27 M sucrose, 0.1% β-mercaptoethanol, and 1 tablet of protease inhibitor cocktail per 50 ml of buffer. Lysates were frozen in liquid nitrogen and kept at −80° C. until required. Purification involved incubation of the cleared lysate with glutathione sepharose, followed by 2 washes with 0.5 M NaCl in lysis buffer, 8 washes with a buffer containing 50 mM Tris-HCl, 0.1 mM EGTA and 0.1% β-mercaptoethanol (buffer A), and a last wash with buffer A supplemented with 0.26 M sucrose. […]
(§2) The protein kinase activity assays were performed essentially as previously described (Engel, M. et al. Embo J 25, 5469-80 (2006)). The assays were done in a 96-well format and 4 μl aliquots spotted on P81 phospho-cellulose papers (Whatman) using epMotion 5070 (Eppendorf), washed in 0.01% phosphoric acid, dried, and then exposed and analyzed using PhosphoImager technology (FLA-9000 Starion, Fujifilm). […]

The target of a further experiment is T2, PKCα (Homo sapiens, UniProt P17252).
T2 construct: purchased Millipore
In words: Protein kinase activity assay, PKCα. Format: biochemical. The following applies: Table I b; percentage of catalytic activity compared to DMSO; lipid activator mix, histone H1. How it is done: (§3) The protein kinase activity assays were performed essentially as previously described (Engel, M. et al. Embo J 25, 5469-80 (2006)). The assays were done in a 96-well format and 4 μl aliquots spotted on P81 phospho-cellulose papers (Whatman) using epMotion 5070 (Eppendorf), washed in 0.01% phosphoric acid, dried, and then exposed and analyzed using PhosphoImager technology (FLA-9000 Starion, Fujifilm). Atypical PKC (aPKC) activity assays were performed in a total volume of 20 μl containing 50 mM Tris-HCl pH 7.5, 0.05 mg/ml BSA, 0.1% (v/v) 2-mercaptoethanol, 10 mM MgCl2, 100 μM [γ^32P]ATP (5-50 cpm/pmol), 0.003% Brij, 30-50 ng of aPKC, and MBP (10 μM) or PSRtide (100 μM) as the substrate. After 15 min pre-incubation, the kinase reaction was started by addition of 6 μl of an ATP-Mg mix. When required, lipid activator (LA) phosphatidylserine (100 ng) or PKC lipid activator mix (1×) was included in the pre-incubation. Low basal activity and consistent activation of 1-592 PKCζ and 498 PKCζ by LA was obtained when the pre-incubation time was started by addition of the whole mix on the enzyme.
(§4) The substrates were T308tide (200 μM) for PDK1, Kemptide (100 μM) for PKA, and Crosstide (100 μM) for SGK, PKB, S6K, and PRK2. The activity assays for PKCα, β, θ, and δ were performed in the presence of PKC lipid activator mix (1×) using 3 μM of histone H1 as substrate. […]

The target in a further experiment is T3, PKCβ (Homo sapiens, UniProt P05771).
T3 construct: purchased ProQinase
T3 sequence (P05771 whole entry, species assumed): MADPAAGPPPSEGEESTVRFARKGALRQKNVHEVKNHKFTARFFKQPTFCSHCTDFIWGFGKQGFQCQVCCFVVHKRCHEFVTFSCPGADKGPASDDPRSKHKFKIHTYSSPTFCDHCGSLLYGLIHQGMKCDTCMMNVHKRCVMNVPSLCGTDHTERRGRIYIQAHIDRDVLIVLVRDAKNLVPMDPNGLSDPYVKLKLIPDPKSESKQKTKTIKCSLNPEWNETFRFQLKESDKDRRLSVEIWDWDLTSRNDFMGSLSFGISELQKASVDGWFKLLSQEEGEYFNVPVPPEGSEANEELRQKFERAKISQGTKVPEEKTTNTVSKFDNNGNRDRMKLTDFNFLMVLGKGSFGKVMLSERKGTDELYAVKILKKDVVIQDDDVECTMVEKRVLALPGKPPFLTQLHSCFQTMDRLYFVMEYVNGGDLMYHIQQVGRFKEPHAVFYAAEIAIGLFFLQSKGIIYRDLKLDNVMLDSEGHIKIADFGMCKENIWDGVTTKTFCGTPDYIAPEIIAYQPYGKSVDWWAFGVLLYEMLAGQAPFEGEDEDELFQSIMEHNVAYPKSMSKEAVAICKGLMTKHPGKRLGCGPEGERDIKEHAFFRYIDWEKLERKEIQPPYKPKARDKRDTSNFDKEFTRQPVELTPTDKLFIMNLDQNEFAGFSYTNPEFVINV
In words: Protein kinase activity assay, PKCβ. To be noted: Table I b; percentage of catalytic activity compared to DMSO; lipid activator mix, histone H1. Format: biochemical. The procedure:
as §3, §4

The target of the next experiment is T4, SGK (Homo sapiens, UniProt O00141, S422D).
T4 construct: made in house; host or cells: HEK293
T4 sequence (O00141 61-431 S422D limits assumed): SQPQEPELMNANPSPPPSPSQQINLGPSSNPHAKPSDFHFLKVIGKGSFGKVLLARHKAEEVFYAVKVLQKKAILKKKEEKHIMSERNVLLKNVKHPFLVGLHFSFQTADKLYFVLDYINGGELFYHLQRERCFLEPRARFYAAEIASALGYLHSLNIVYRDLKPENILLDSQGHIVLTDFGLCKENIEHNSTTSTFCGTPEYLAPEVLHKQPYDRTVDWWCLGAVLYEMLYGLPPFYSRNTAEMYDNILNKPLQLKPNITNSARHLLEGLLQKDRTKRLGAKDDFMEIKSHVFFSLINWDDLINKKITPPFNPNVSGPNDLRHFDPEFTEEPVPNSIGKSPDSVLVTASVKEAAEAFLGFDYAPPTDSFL
In words: Protein kinase activity assay, SGK. The following applies: Table I a; percentage of catalytic activity compared to DMSO; Crosstide substrate. It is filed as biochemical. The procedure:
as §1, §2

In the case of `Cl.O=C(O)CC(Cc1nc2cc(-c3ccccc3)ccc2[nH]1)c1ccc(Cl)cc1` (stereo not shown) [PS168], the IC50 (usually the point on the concentration scale where inhibition reaches its midpoint) in experiment [1] was 50 µM. For the same compound, the “Activity (%) PRK2” value on PRK2 worked out at 103%. Besides, the “Activity (%) Classical PKCs PKCα” value on PKCα was found to be 154%. The “Activity (%) Classical PKCs PKCβ” value at PKCβ was 148%. The “Activity (%) SGK” value at SGK is given as 93%.
For `Cl.O=C(O)CC(Cc1nc2c(Cl)cc(Cl)cc2[nH]1)c1ccc(Cl)cc1` (stereo not shown) [PS171] the same measures were 50 µM, 97%, 145%, 138% and 97%.
